Structures are written as SMILES.

The text below walks through data of ChEMBL document CHEMBL5724914, “Linking interpersonal differences in gut microbiota composition and drug biotransformation activity” (2024).

Series [1] in a line: The drug is tested on Z-028 corresponding to mouse gut metagenome with ENA study accession number: PRJEB37062 and ENA sample accession number: ERS12561827 for biotransformation under anaerobic condition. The drug concentrations were measured over 9 timepoints collected between 0 and 24 hours of incubation by liquid-chromatography-coupled mass spectrometry (LC–MS). The settings on record: 2 µM.

The conditions of series [2]: human gut metagenome, 24 h, 2 µM.
For series [3] the following is noted: human gut metagenome, 24 h, 2 µM. This is another data set of the same source.
Series [4] in a line: The drug is tested on Z-025 corresponding to rabbit gut metagenome with ENA study accession number: PRJEB37062 and ENA sample accession number: ERS12561824 for biotransformation under anaerobic condition. The drug concentrations were measured over 9 timepoints collected between 0 and 24 hours of incubation by liquid-chromatography-coupled mass spectrometry (LC–MS). The settings on record: 2 µM.

Series [5] can be described thus: The drug is tested on WLS-350 corresponding to human gut metagenome with ENA study accession number: PRJEB37062 and ENA sample accession number: ERS12561789 for biotransformation under anaerobic condition. The drug concentrations were measured over 9 timepoints collected between 0 and 24 hours of incubation by liquid-chromatography-coupled mass spectrometry (LC–MS). To be noted: 2 µM.

Series [6] is described as follows: The drug is tested on Z-009 corresponding to pig gut metagenome with ENA study accession number: PRJEB37062 and ENA sample accession number: ERS12561809 for biotransformation under anaerobic condition. The drug concentrations were measured over 9 timepoints collected between 0 and 24 hours of incubation by liquid-chromatography-coupled mass spectrometry (LC–MS). To be noted: 2 µM.

The conditions of series [7]: human gut metagenome, 24 h, 2 µM. This is another data set of the same source.
Series [8] is described as follows: The drug is tested on Z-006 corresponding to mouse gut metagenome with ENA study accession number: PRJEB37062 and ENA sample accession number: ERS12561806 for biotransformation under anaerobic condition. The drug concentrations were measured over 9 timepoints collected between 0 and 24 hours of incubation by liquid-chromatography-coupled mass spectrometry (LC–MS). The settings on record: 2 µM.

A short description of series [9]: The drug is tested on WLS-073 corresponding to human gut metagenome with ENA study accession number: PRJEB37062 and ENA sample accession number: ERS12561749 for biotransformation under anaerobic condition. The drug concentrations were measured over 9 timepoints collected between 0 and 24 hours of incubation by liquid-chromatography-coupled mass spectrometry (LC–MS). The settings on record: 2 µM.

Series [10] is described as follows: The drug is tested on Z-007 corresponding to rat gut metagenome with ENA study accession number: PRJEB37062 and ENA sample accession number: ERS12561807 for biotransformation under anaerobic condition. The drug concentrations were measured over 9 timepoints collected between 0 and 24 hours of incubation by liquid-chromatography-coupled mass spectrometry (LC–MS). The settings on record: 2 µM.

The conditions of series [11]: human gut metagenome, 24 h, 2 µM. The source holds these as a separate data set.
Series [12] in a line: The drug is tested on Z-020 corresponding to rabbit gut metagenome with ENA study accession number: PRJEB37062 and ENA sample accession number: ERS12561819 for biotransformation under anaerobic condition. The drug concentrations were measured over 9 timepoints collected between 0 and 24 hours of incubation by liquid-chromatography-coupled mass spectrometry (LC–MS). To be noted: 2 µM.

The conditions of series [13]: human gut metagenome, 24 h, 2 µM. The source holds these as a separate data set.
The conditions of series [14]: human gut metagenome, 24 h, 2 µM. The source holds these as a separate data set.
Series [15] can be described thus: The drug is tested on Z-005 corresponding to metagenome with ENA study accession number: PRJEB37062 and ENA sample accession number: ERS12561805 for biotransformation under anaerobic condition. The drug concentrations were measured over 9 timepoints collected between 0 and 24 hours of incubation by liquid-chromatography-coupled mass spectrometry (LC–MS). The settings on record: 2 µM.

Series [16] in a line: The drug is tested on Z-017 corresponding to mouse gut metagenome with ENA study accession number: PRJEB37062 and ENA sample accession number: ERS12561816 for biotransformation under anaerobic condition. The drug concentrations were measured over 9 timepoints collected between 0 and 24 hours of incubation by liquid-chromatography-coupled mass spectrometry (LC–MS). To be noted: 2 µM.

The conditions of series [17]: human gut metagenome, 24 h, 2 µM. The source holds these as a separate data set.
Series [18] in a line: The drug is tested on Z-019 corresponding to rat gut metagenome with ENA study accession number: PRJEB37062 and ENA sample accession number: ERS12561818 for biotransformation under anaerobic condition. The drug concentrations were measured over 9 timepoints collected between 0 and 24 hours of incubation by liquid-chromatography-coupled mass spectrometry (LC–MS). The settings on record: 2 µM.

A short description of series [19]: The drug is tested on WLS-086 corresponding to human gut metagenome with ENA study accession number: PRJEB37062 and ENA sample accession number: ERS12561752 for biotransformation under anaerobic condition. The drug concentrations were measured over 9 timepoints collected between 0 and 24 hours of incubation by liquid-chromatography-coupled mass spectrometry (LC–MS). To be noted: 2 µM.

The nature of series [20]: The drug is tested on Z-027 corresponding to metagenome with ENA study accession number: PRJEB37062 and ENA sample accession number: ERS12561826 for biotransformation under anaerobic condition. The drug concentrations were measured over 9 timepoints collected between 0 and 24 hours of incubation by liquid-chromatography-coupled mass spectrometry (LC–MS). To be noted: 2 µM.
Also: call rule not given here.

With `C[C@]12CCC(=O)C=C1[C@@H]1C[C@@H]1[C@H]1[C@@H]3[C@@H]4C[C@@H]4[C@@]4(CCC(=O)O4)[C@@]3(C)CC[C@@H]12` [DROSPIRENONE], the “Bacterial Biotransformation” value in series [1] is “Compound NOT metabolized”; in series [2], “Compound metabolized”; in series [3], “Compound NOT metabolized”; in series [4], “Compound NOT metabolized”; in [5], “Compound NOT metabolized”; in [6], “Compound metabolized”. Besides, the “Bacterial Biotransformation” value in [7] is “Compound NOT metabolized”; in series [8] it was “Compound metabolized”; in series [9] it was “Compound metabolized”; in series [10] it was “Compound NOT metabolized”; in series [11], “Compound metabolized”; in series [12], “Compound metabolized”. Moreover, the “Bacterial Biotransformation” value is “Compound NOT metabolized” in series [13]; “Compound NOT metabolized” in series [14]; “Compound metabolized” in [15]; “Compound metabolized” in [16]; “Compound NOT metabolized” in series [17]; “Compound NOT metabolized” in [18]. Also, the “Bacterial Biotransformation” value in series [19] is recorded as “Compound metabolized”; in [20], “Compound NOT metabolized”.

For `CCN1CCCC1CNC(=O)c1cc(S(=O)(=O)CC)c(N)cc1OC` (stereo not given) [AMISULPRIDE], the “Bacterial Biotransformation” value in series [1] was “Compound NOT metabolized”; in [2] it was “Compound metabolized”; in series [3], “Compound NOT metabolized”; in series [4] it was “Compound NOT metabolized”; in series [5] it was “Compound NOT metabolized”; in series [6], “Compound NOT metabolized”. Besides, the “Bacterial Biotransformation” value in series [7] is recorded as “Compound metabolized”; in [8], “Compound NOT metabolized”; in series [9], “Compound NOT metabolized”; in series [10], “Compound NOT metabolized”; in series [11], “Compound NOT metabolized”; in [12], “Compound NOT metabolized”. For the same compound, the “Bacterial Biotransformation” value in series [13], in series [14], in series [15], in series [16], in series [17] and in series [18] was “Compound NOT metabolized” in each case. Moreover, the results for the “Bacterial Biotransformation” value in series [19] and in series [20] were “Compound metabolized” and “Compound NOT metabolized”, respectively.

Turning to `Nc1nc(N)nc(-c2cc(Cl)ccc2Cl)n1.O=C(O)/C=C\C(=O)O` [IRSOGLADINE MALEATE], the “Bacterial Biotransformation” value in series [1] was “Compound NOT metabolized”; in [2], “Compound NOT metabolized”; in series [3] it was “Compound NOT metabolized”; in [4] it was “Compound metabolized”; in series [5], “Compound NOT metabolized”; in series [6] it was “Compound NOT metabolized”. For the same compound, the “Bacterial Biotransformation” value in [7], in [8], in series [9], in series [10], in series [11] and in series [12] was “Compound NOT metabolized” each time. The “Bacterial Biotransformation” value in [13], in [14], in series [15], in series [16], in series [17] and in series [18] was “Compound NOT metabolized” in each case. In addition, the “Bacterial Biotransformation” value in series [19] was “Compound metabolized”; in [20] it was “Compound NOT metabolized”.

For the compound `CC(C)NCC(O)COc1ccc(CC(N)=O)cc1` (stereo not given) [ATENOLOL], the “Bacterial Biotransformation” value in series [1], in series [2], in [3], in series [4], in series [5] and in series [6] was “Compound NOT metabolized” throughout. The “Bacterial Biotransformation” value in series [7] was “Compound metabolized”; in series [8], “Compound NOT metabolized”; in series [9] it was “Compound NOT metabolized”; in [10], “Compound NOT metabolized”; in series [11], “Compound NOT metabolized”; in series [12], “Compound NOT metabolized”. Also, the “Bacterial Biotransformation” value in [13], in series [14], in series [15], in series [16], in [17] and in series [18] was “Compound NOT metabolized” in each case. The “Bacterial Biotransformation” value was “Compound metabolized” in series [19] and “Compound NOT metabolized” in series [20].

As to `CN(CCOc1ccc(CC2SC(=O)NC2=O)cc1)c1ccccn1.O=C(O)/C=C\C(=O)O` (stereo not given) [ROSIGLITAZONE MALEATE], the “Bacterial Biotransformation” value in series [1] is listed as “Compound NOT metabolized”; in [2] it was “Compound metabolized”; in series [3], “Compound NOT metabolized”; in series [4] it was “Compound metabolized”; in series [5] it was “Compound metabolized”; in [6], “Compound NOT metabolized”. The “Bacterial Biotransformation” value is “Compound metabolized” in series [7]; “Compound NOT metabolized” in series [8]; “Compound NOT metabolized” in series [9]; “Compound NOT metabolized” in [10]; “Compound NOT metabolized” in [11]; “Compound NOT metabolized” in series [12]. The “Bacterial Biotransformation” value in [13] was “Compound metabolized”; in [14], “Compound NOT metabolized”; in series [15], “Compound NOT metabolized”; in series [16], “Compound NOT metabolized”; in [17], “Compound metabolized”; in series [18] it was “Compound NOT metabolized”. Also, the “Bacterial Biotransformation” value in [19] and in series [20] was “Compound NOT metabolized” throughout.
